{"source": "patent US11013249B2", "about": "“Compositions for controlled release of volatile compounds” (University of Guelph, priority 2016, dated 2021)", "key": {"[1]": {"settings": "cited from earlier work"}, "[2]": {"settings": "cited from earlier work", "remark": "listed apart in the source"}, "[3]": {"test": "Release of diacetyl and AITC vapours from PEG blends into jar headspace (automatic headspace sampling, GC)", "assay_type": "physicochemical", "settings": "from 4:1 PEG400:PEG10K", "experimental": "PEG400 and PEG10K were blended at 1:4, 2:3, 3:2 and 4:1 (w/w) ratios. All PEG blends (20±1 g) were heated to 90° C. in a 20 mL glass vial for 20 min to ensure the polymers were melted and thoroughly mixed with the aid of a magnetic stir bar. […] The vials were capped, kept in a 75° C. oven and continuously being stirred with the magnetic stir bar for 15 min. The molten mixtures were injected into a mould fabricated from glass (2 cm×1.5 cm×0.1 cm) and allowed to set. One face of the mould was lined with aluminum tape (adhesive side facing away from PEG), which acted as a baking material for the solidified PEG. Upon solidification, diacetyl/AITC impregnated PEG sheeting was formed.\nWith the aid of a controller (SRI Instruments Inc., Las Vegas, Nev., USA), the headspace air in the glass jar was sampled automatically by means of a vacuum pump and two stream selection valves (Model EMTCA-CE, VICI Valco Instruments Co. Inc., Houston, Texax, USA), and injected into a gas chromatograph equipped with flame ionization detector (GC 6890, Agilent Technologies Inc., Santa Clara, Calif., USA.). Both the detector and oven temperatures were set at 150° C. The flow rates of the carrier gas (N2), compressed air and hydrogen were 30 mL/min, 200 mL/min and 30 mL/min, respectively. Retention time and peak area were analyzed by using chromatographic software (Peak Simple 393-32 bit, SRI Instruments, Torrance, Calif., USA). After each sampling, an equal amount of dry air was injected back into the jar to maintain the interior pressure at one atmosphere.\nDiacetyl or AITC release profiles were generated by plotting Mn versus time.\nThe release profiles of the antimicrobial compounds were fitted in a model which combines first order kinetics and zero order kinetics: C=Ce×(1−e^−kt)+αt (Eq. 3) where C is the compound concentration at time t; Ce is the equilibrium concentration for diffusion; k is the diffusion rate constant; α is the rate of zero order kinetics. Models are fitted to the data before reaching the equilibrium."}, "[4]": {"tested_on": "Yeast", "test": "Inhibitory effects of AITC, diacetyl and cinnamaldehyde vapour", "assay_type": "cell-based, yeast isolated from mung bean sprouts", "experimental": "(§1) P. fluorescens was selected as a model spoilage bacteria, while mould and yeast were isolated from spoiled mung bean sprouts with bacteria excluded by cultivating in potato dextrose broth (PDB) (Sigma, Oakville, ON, Canada) at pH 5.6±0.2. Yeast and P. fluorescens stocks were cultivated in PDB and trypticase soy broth (TSB) (Bacto, BD, Sparks, USA), respectively, at 30° C. for 24 h and diluted with sterile saline solution (NaCl, 8.5 g/L water) to a concentration of 10^6 CFU/mL. An aliquot of 50 μL of the prepared yeast or bacteria suspension was spread on potato dextrose agar (PDA) (Difco, BD, Sparks, USA) or trypticase soy agar (TSA) (Bacto, BD, Sparks, USA), respectively, in 5 cm diameter petri dishes (Fisher Scientific, Ottawa, ON, Canada). Mycelium of mould was inoculated as one spot at the center of the PDA dishes. Two freshly inoculated petri dishes of same microorganism, with their lids removed, were placed in a one-liter glass jar. […] The growth of the microorganisms was monitored by the colony formation for 3 days."}, "[5]": {"tested_on": "Mould", "test": "Inhibitory effects of AITC, diacetyl and cinnamaldehyde vapour", "assay_type": "cell-based, mould isolated from mung bean sprouts", "settings": "25° C.", "experimental": "as §1"}, "[6]": {"tested_on": "P. Fluorescens", "test": "Inhibitory effects of AITC, diacetyl and cinnamaldehyde vapour", "assay_type": "cell-based, Pseudomonas fluorescens P33", "settings": "25° C.", "experimental": "as §1"}, "[7]": {"settings": "Amount 1 mg in one-liter jar, 25° C."}, "[8]": {"settings": "Amount 2 mg in one-liter jar, 25° C."}, "[9]": {"settings": "Amount 3 mg in one-liter jar, 25° C."}}, "note": "Read-outs that look alike come from different tables or passages of the source.", "data": [{"smiles": "Cc1ccc(C(C)C)cc1O", "note": "[carvacrol, 5-isopropyl-2-methylphenol]", "values": [{"measurement": "vapor pressure", "setting": "[1]; 22° C.", "value": 0.0042, "unit": "kPa"}, {"measurement": "vapor pressure", "setting": "[1]; 25° C.", "value": 0.0087, "unit": "kPa"}, {"measurement": "solubility in water", "setting": "[2]", "value": "low solubility in water"}]}, {"smiles": "CC(=O)C(C)=O", "note": "[Diacetyl, 2,3-butanedione]", "values": [{"measurement": "Ce", "setting": "[3]; 0 μL water, 5° C.", "value": 0.631, "unit": "mg/L"}, {"measurement": "k", "setting": "[3]; 0 μL water, 5° C.", "value": 0.00764, "unit": "h⁻¹"}, {"measurement": "α", "setting": "[3]; 0 μL water, 5° C.", "value": 0.000149, "unit": "h⁻¹"}, {"measurement": "Ce", "setting": "[3]; 0 μL water, 25° C.", "value": 1.965, "unit": "mg/L"}, {"measurement": "k", "setting": "[3]; 0 μL water, 25° C.", "value": 0.00837, "unit": "h⁻¹"}, {"measurement": "α", "setting": "[3]; 0 μL water, 25° C.", "value": 0.000258, "unit": "h⁻¹"}, {"measurement": "maximum released after 42 h", "setting": "[3]; 5° C.", "value": 1.98, "unit": "mg"}, {"measurement": "Ce", "setting": "[3]; 10 μL water, 5° C.", "value": 1.074, "unit": "mg/L"}, {"measurement": "k", "setting": "[3]; 10 μL water, 5° C.", "value": 0.00484, "unit": "h⁻¹"}, {"measurement": "α", "setting": "[3]; 10 μL water, 5° C.", "value": 0.000236, "unit": "h⁻¹"}, {"measurement": "Ce", "setting": "[3]; 10 μL water, 25° C.", "value": 1.701, "unit": "mg/L"}, {"measurement": "k", "setting": "[3]; 10 μL water, 25° C.", "value": 0.01425, "unit": "h⁻¹"}, {"measurement": "α", "setting": "[3]; 10 μL water, 25° C.", "value": 0.00034, "unit": "h⁻¹"}, {"measurement": "maximum released after 42 h", "setting": "[3]; 25° C.", "value": 2.85, "unit": "mg"}, {"measurement": "Ce", "setting": "[3]; 100 μL water, 5° C.", "value": 1.418, "unit": "mg/L"}, {"measurement": "k", "setting": "[3]; 100 μL water, 5° C.", "value": 0.00159, "unit": "h⁻¹"}, {"measurement": "α", "setting": "[3]; 100 μL water, 5° C.", "value": 0.000253, "unit": "h⁻¹"}, {"measurement": "Ce", "setting": "[3]; 100 μL water, 25° C.", "value": 1.901, "unit": "mg/L"}, {"measurement": "k", "setting": "[3]; 100 μL water, 25° C.", "value": 0.01281, "unit": "h⁻¹"}, {"measurement": "α", "setting": "[3]; 100 μL water, 25° C.", "value": 0.000272, "unit": "h⁻¹"}, {"measurement": "Ce", "setting": "[3]; 1000 μL water, 5° C.", "value": 0.151, "unit": "mg/L"}, {"measurement": "k", "setting": "[3]; 1000 μL water, 5° C.", "value": 0.01321, "unit": "h⁻¹"}, {"measurement": "α", "setting": "[3]; 1000 μL water, 5° C.", "value": 0.000301, "unit": "h⁻¹"}, {"measurement": "Ce", "setting": "[3]; 1000 μL water, 25° C.", "value": 2.156, "unit": "mg/L"}, {"measurement": "k", "setting": "[3]; 1000 μL water, 25° C.", "value": 0.00728, "unit": "h⁻¹"}, {"measurement": "α", "setting": "[3]; 1000 μL water, 25° C.", "value": 0.000279, "unit": "h⁻¹"}, {"measurement": "Yeast day1, visual colony number", "setting": "[4]; [7]", "value": "+ (less than 15)"}, {"measurement": "Yeast day2, visual colony number", "setting": "[4]; [7]", "value": "+ (less than 15)"}, {"measurement": "Yeast day3, visual colony number", "setting": "[4]; [7]", "value": "+ (less than 15)"}, {"measurement": "Yeast day1, visual colony number", "setting": "[4]; [8]", "value": "+ (less than 15)"}, {"measurement": "Yeast day2, visual colony number", "setting": "[4]; [8]", "value": "+ (less than 15)"}, {"measurement": "Yeast day3, visual colony number", "setting": "[4]; [8]", "value": "+ (less than 15)"}, {"measurement": "Yeast day2, visual colony number", "setting": "[4]; [9]", "value": "+ (less than 15)"}, {"measurement": "Yeast day3, visual colony number", "setting": "[4]; [9]", "value": "+ (less than 15)"}, {"measurement": "MIC", "setting": "[4]; established on yeast, mould and P. fluorescens from Table 8, read-out: minimum inhibition concentration (MIC)", "value": 4, "unit": "µg/mL"}, {"measurement": "effective concentration against yeast", "setting": "[4]; vapour in one-liter jar, 25° C.", "value": 4, "unit": "mg/L"}, {"measurement": "Mould day1, visual colony number", "setting": "[5]; Amount 1 mg in one-liter jar", "value": "+ (less than 15)"}, {"measurement": "Mould day2, visual colony number", "setting": "[5]; Amount 1 mg in one-liter jar", "value": "+ (less than 15)"}, {"measurement": "Mould day3, visual colony number", "setting": "[5]; Amount 1 mg in one-liter jar", "value": "+ (less than 15)"}, {"measurement": "concentration that inhibited the growth of mould for three days", "setting": "[5]; vapour in one-liter jar", "value": 2, "unit": "mg/L"}, {"measurement": "P. Fluorescens day1, visual colony number", "setting": "[6]; Amount 1 mg in one-liter jar", "value": "+ (less than 15)"}, {"measurement": "P. Fluorescens day2, visual colony number", "setting": "[6]; Amount 1 mg in one-liter jar", "value": "+ (less than 15)"}, {"measurement": "effective concentration against P. fluorescens", "setting": "[6]; vapour in one-liter jar", "value": 2, "unit": "mg/L"}, {"measurement": "Saturated vapor pressure", "setting": "[1]; 5° C.", "value": "~2400", "unit": "Pa"}, {"measurement": "vapor pressure (volatility)", "setting": "[1]; 20° C.", "value": 6.9, "unit": "kPa"}, {"measurement": "Saturated vapor pressure", "setting": "[1]; 45° C.", "value": "~20100", "unit": "Pa"}]}]}
